Reference: patent US9346817B2, “Dioxino- and oxazin-[2,3-D]pyrimidine PI3K inhibitor compounds and methods of use” (Genentech, Inc., priority 2012, dated 2016)

Experiments:
[1] = system: PC3 cells (prostate, PTEN mutation); experiment: In vitro cell proliferation assay (CellTiter-Glo), PC3; format: cell-based; conditions: Homo sapiens, PC-3; Cell line: PC3; Tissue type: prostate; Mutation Status: PTEN
Method: (§1) The cytotoxic or cytostatic activity of Formula I exemplary compounds was measured by: establishing a proliferating mammalian tumor cell line in a cell culture medium, adding a Formula I compound, culturing the cells for a period from about 6 hours to about 5 days; and measuring cell viability (Example 902). Cell-based in vitro assays were used to measure viability, i.e. proliferation (IC50), cytotoxicity (EC50), and induction of apoptosis (caspase activation).
(§2) The in vitro potency of Formula I exemplary compounds was measured by the cell proliferation assay, CellTiter-Glo® Luminescent Cell Viability Assay, commercially available from Promega Corp., Madison, Wis. (Example 902). This homogeneous assay method is based on the recombinant expression of Coleoptera luciferase (U.S. Pat. No. 5,583,024; U.S. Pat. No. 5,674,713; U.S. Pat. No. 5,700,670) and determines the number of viable cells in culture based on quantitation of the ATP present, an indicator of metabolically active cells (Crouch et al (1993) J. Immunol. Meth. 160:81-88; U.S. Pat. No. 6,602,677). The CellTiter-Glo® Assay was conducted in 96 or 384 well format, making it amenable to automated high-throughput screening (HTS) (Cree et al (1995) AntiCancer Drugs 6:398-404). The homogeneous assay procedure involves adding the single reagent (CellTiter-Glo® Reagent) directly to cells cultured in serum-supplemented medium. Cell washing, removal of medium and multiple pipetting steps are not required. The system detects as few as 15 cells/well in a 384-well format in 10 minutes after adding reagent and mixing.
(§3) The homogeneous “add-mix-measure” format results in cell lysis and generation of a luminescent signal proportional to the amount of ATP present. The amount of ATP is directly proportional to the number of cells present in culture. The CellTiter-Glo® Assay generates a “glow-type” luminescent signal, produced by the luciferase reaction, which has a half-life generally greater than five hours, depending on cell type and medium used. Viable cells are reflected in relative luminescence units (RLU). The substrate, Beetle Luciferin, is oxidatively decarboxylated by recombinant firefly luciferase with concomitant conversion of ATP to AMP and generation of photons. The extended half-life eliminates the need to use reagent injectors and provides flexibility for continuous or batch mode processing of multiple plates. This cell proliferation assay can be used with various multiwell formats, e.g. 96 or 384 well format. Data can be recorded by luminometer or CCD camera imaging device. The luminescence output is presented as relative light units (RLU), measured over time.
(§4) The anti-proliferative effects of Formula I exemplary compounds were measured by the CellTiter-Glo® Assay (Example 902) against several tumor cell lines. Potency EC50 values were established for the tested compounds. The range of in vitro cell potency activities was about 100 nM to about 10 μM.
(§5) Efficacy of Formula I compounds was measured by a cell proliferation assay employing the following protocol (Promega Corp. Technical Bulletin TB288; Mendoza et al (2002) Cancer Res. 62:5485-5488):
(§6) 1. An aliquot of 100 μl of cell culture containing about 10^4 cells (PC3 (prostate cancer), Detroit562 (pharynx carcinoma), or MDAMB361.1 (breast cancer) in medium was deposited in each well of a 384-well, opaque-walled plate.
(§7) 2. Control wells were prepared containing medium and without cells.
(§8) 3. The compound was added to the experimental wells and incubated for 3-5 days.
(§9) 4. The plates were equilibrated to room temperature for approximately 30 minutes.
(§10) 5. A volume of CellTiter-Glo® Reagent equal to the volume of cell culture medium present in each well was added.
(§11) 6. The contents were mixed for 2 minutes on an orbital shaker to induce cell lysis.
(§12) 7. The plate was incubated at room temperature for 10 minutes to stabilize the luminescence signal.
(§13) 8. Luminescence was recorded and reported in graphs as RLU=relative luminescence units. […]

[2] = system: MDA-MB-361.1 cells (breast, PI3K mutation); experiment: In vitro cell proliferation assay (CellTiter-Glo), MDA-MB-361.1; format: cell-based; conditions: Cell line: MDA-MB-361.1; Tissue type: breast; Mutation Status: PI3K
Method: as §1, §2, §3, §4, §5, §6, §7, §8, §9, §10, §11, §12, §13

[3] = Brain protein binding in rats; format: in vitro ADME; conditions: rat, read-out: Brain protein binding (mean bound %) (converted)
Method: Brain protein binding in rats was measured for Formula I exemplary compounds, including the following: […]

| Compound | EC50 [1] [µM] | EC50 [2] [µM] | fraction unbound [3] |
| --- | --- | --- | --- |
| Nc1ncc(-c2nc3c(c(N4CCOCC4)n2)OC(C2CC2)CO3)cn1 (centres unmarked) [Compound 107, 5-(6-cyclopropyl-4-morpholino-6,7-dihydro-[1,4]dioxino[2,3-d]pyrimidin-2-yl)pyrimidin-2-amine] | 1.2 | 0.961 |  |
| CN1CCOc2c1nc(-c1cnc(N)nc1)nc2N1CCOCC1 [Compound 119, 5-(8-methyl-4-morpholino-7,8-dihydro-6H-pyrimido[5,4-b][1,4]oxazin-2-yl)pyrimidin-2-amine] | 3.1 | 2.6 |  |
| C[C@@H]1COc2nc(-c3cnc(N)nc3)nc(N3CCOCC3)c2O1 [Compound 102, 5-[(6R)-6-methyl-4-morpholino-6,7-dihydro-[1,4]dioxino[2,3-d]pyrimidin-2-yl]pyrimidin-2-amine] | 0.557 | 0.37 | 0.2 |
| CC(C)(C)C1COc2c(nc(-c3cnc(N)nc3)nc2N2CCOCC2)O1 (centres unmarked) [Compound 108, 5-(7-tert-butyl-4-morpholino-6,7-dihydro-[1,4]dioxino[2,3-d]pyrimidin-2-yl)pyrimidin-2-amine] | 0.338 | 0.213 |  |
| Nc1ncc(-c2nc3c(c(N4CCOCC4)n2)OCCO3)cn1 [Compound 101, 5-(4-morpholino-6,7-dihydro-[1,4]dioxino[2,3-d]pyrimidin-2-yl)pyrimidin-2-amine] | 1 | 1.1 | 0.285 |
| Nc1ncc(-c2nc3c(c(N4CCOCC4)n2)OCC(CF)O3)cn1 (centres unmarked) [Compound 116, 5-[7-(fluoromethyl)-4-morpholino-6,7-dihydro-[1,4]dioxino[2,3-d]pyrimidin-2-yl]pyrimidin-2-amine] | 0.76 | 0.73 | 0.17 |
| Nc1ncc(-c2nc3c(c(N4CCOCC4)n2)OCC(C(F)(F)F)O3)cn1 (centres unmarked) [Compound 105, 5-[4-morpholino-7-(trifluoromethyl)-6,7-dihydro-[1,4]dioxino[2,3-d]pyrimidin-2-yl]pyrimidin-2-amine] | 0.5 | 0.275 | 0.183 |
| CC1(C)COc2c(nc(-c3cccc(NS(C)(=O)=O)c3)nc2N2CCOCC2)O1 [Compound 114, N-[3-(7,7-dimethyl-4-morpholino-6H-[1,4]dioxino[2,3-d]pyrimidin-2-yl)phenyl]methanesulfonamide] | > 10 | > 7.5 |  |
| CC1(C)COc2c(nc(-c3ccc4[nH]ccc4c3)nc2N2CCOCC2)O1 [Compound 115, 2-(1H-indol-5-yl)-7,7-dimethyl-4-morpholino-6H-[1,4]dioxino[2,3-d]pyrimidine] | 2.3 | 1.8 |  |
| CN1C(=O)COc2c(N3CCOCC3)nc(-c3cnc(N)nc3)nc21 [Compound 120, 2-(2-aminopyrimidin-5-yl)-8-methyl-4-morpholino-6H-pyrimido[5,4-b][1,4]oxazin-7(8H)-one] | 0.589 | 0.57 | 0.16 |
| Nc1ncc(-c2nc3c(c(N4CCOCC4)n2)OCC(CO)O3)cn1 (centres unmarked) [Compound 117, [2-(2-aminopyrimidin-5-yl)-4-morpholino-6,7-dihydro-[1,4]dioxino[2,3-d]pyrimidin-7-yl]methanol] | 0.759 | 0.669 |  |

Second part, the compound after the results:

| EC50 [1] [µM] | EC50 [2] [µM] | fraction unbound [3] | Compound |
| --- | --- | --- | --- |
| 0.406 | 0.577 |  | CC1(C)COc2c(nc(-c3cnc(N)nc3)nc2N2CCOCC2)O1 [Compound 104, 5-(7,7-dimethyl-4-morpholino-6H-[1,4]dioxino[2,3-d]pyrimidin-2-yl)pyrimidin-2-amine] |
| 4.8 | 4.1 |  | COc1ncc(-c2nc3c(c(N4CCOCC4)n2)OCC(C)(C)O3)cn1 [Compound 110, 2-(2-methoxypyrimidin-5-yl)-7,7-dimethyl-4-morpholino-6H-[1,4]dioxino[2,3-d]pyrimidine] |
| 2.1 | 1.8 |  | CC(=O)Nc1ccc(-c2nc3c(c(N4CCOCC4)n2)OCC(C)(C)O3)cc1 [Compound 112, N-[4-(7,7-dimethyl-4-morpholino-6H-[1,4]dioxino[2,3-d]pyrimidin-2-yl)phenyl]acetamide] |
| 0.182 | 0.445 |  | CC1(C)COc2c(nc(-c3cccc(O)c3)nc2N2CCOCC2)O1 [Compound 109, 3-(7,7-dimethyl-4-morpholino-6H-[1,4]dioxino[2,3-d]pyrimidin-2-yl)phenol] |
| 0.48 | 0.545 |  | CC1(C)COc2c(nc(-c3ccc(N)nc3)nc2N2CCOCC2)O1 [Compound 111, 5-(7,7-dimethyl-4-morpholino-6H-[1,4]dioxino[2,3-d]pyrimidin-2-yl)pyridin-2-amine] |
| 2.1 | 2 |  | CNc1ccc(-c2nc3c(c(N4CCOCC4)n2)OCC(C)(C)O3)cn1 [Compound 113, 5-(7,7-dimethyl-4-morpholino-6H-[1,4]dioxino[2,3-d]pyrimidin-2-yl)-N-methyl-pyridin-2-amine] |
| 0.489 | 0.544 | 0.134 | Nc1ncc(-c2nc3c(c(N4CCOCC4)n2)OCC2(CC2)O3)cn1 [Compound 106, 5-(4-morpholinospiro[6H-[1,4]dioxino[2,3-d]pyrimidine-7,1′-cyclopropane]-2-yl)pyrimidin-2-amine] |
| 0.606 | 0.63 |  | CC1COc2c(nc(-c3cnc(N)nc3)nc2N2CCOCC2)O1 (centres unmarked) [Compound 103, 5-(7-methyl-4-morpholino-6,7-dihydro-[1,4]dioxino[2,3-d]pyrimidin-2-yl)pyrimidin-2-amine] |
